Assay results from US20230192705A1, “SHP2 INHIBITORS, COMPOSITIONS AND USES THEREOF” (Betta Pharmaceuticals Co., Ltd, priority 2020, published 2023).
Like-named read-outs stand apart in the source and are kept apart here.

Assays:
SHP2 = target: T1, SHP2 (Homo sapiens, UniProt Q06124); test: SHP2 allosteric inhibitor enzyme activity assay (DiFMUP fluorescence); format: biochemical
T1 sequence (Q06124 1-593): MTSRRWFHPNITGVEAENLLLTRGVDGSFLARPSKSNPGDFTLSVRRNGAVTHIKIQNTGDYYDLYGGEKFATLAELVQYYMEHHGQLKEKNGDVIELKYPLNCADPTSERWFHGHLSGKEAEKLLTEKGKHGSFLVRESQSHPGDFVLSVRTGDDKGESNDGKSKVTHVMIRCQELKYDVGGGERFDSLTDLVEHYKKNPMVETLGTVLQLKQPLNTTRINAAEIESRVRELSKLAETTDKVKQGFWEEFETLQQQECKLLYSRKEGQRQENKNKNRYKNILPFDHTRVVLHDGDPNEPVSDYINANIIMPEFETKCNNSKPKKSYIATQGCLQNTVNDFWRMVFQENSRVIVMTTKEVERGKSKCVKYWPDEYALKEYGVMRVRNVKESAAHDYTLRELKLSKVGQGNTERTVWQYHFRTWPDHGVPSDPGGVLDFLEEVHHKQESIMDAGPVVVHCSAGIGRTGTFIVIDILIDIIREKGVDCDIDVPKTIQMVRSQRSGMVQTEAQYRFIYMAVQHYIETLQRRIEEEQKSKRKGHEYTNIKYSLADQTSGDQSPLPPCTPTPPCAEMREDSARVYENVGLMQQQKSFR
In short: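 SHP2 activated by 0.5 μM IRS1_pY1172(dPEG8)pY1222 peptide, 0.2 ng enzyme per well, 1 h at room temperature with compound (1 μM top, 3-fold series), then DiFMUP substrate 1 h. Buffer: 60 mM HEPES, 75 mM NaCl, 75 mM KCl, 0.05% BRIJ-35, 1 mM EDTA, 5 mM DTT. Fluorescence ex 340/em 450 nm; IC50 by variable-slope fit.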

hERG channel = target: T2, hERG channel (Homo sapiens, UniProt Q12809); test: Patch clamp assay to test the effect of compound on hERG channel; format: cell-based; details: manual patch clamp, HEK 293 cells expressed with hERG, concentration for half maximum effect
T2 construct: expressed in transfected cells; host or cells: HEK-293
T2 sequence (Q12809 whole entry): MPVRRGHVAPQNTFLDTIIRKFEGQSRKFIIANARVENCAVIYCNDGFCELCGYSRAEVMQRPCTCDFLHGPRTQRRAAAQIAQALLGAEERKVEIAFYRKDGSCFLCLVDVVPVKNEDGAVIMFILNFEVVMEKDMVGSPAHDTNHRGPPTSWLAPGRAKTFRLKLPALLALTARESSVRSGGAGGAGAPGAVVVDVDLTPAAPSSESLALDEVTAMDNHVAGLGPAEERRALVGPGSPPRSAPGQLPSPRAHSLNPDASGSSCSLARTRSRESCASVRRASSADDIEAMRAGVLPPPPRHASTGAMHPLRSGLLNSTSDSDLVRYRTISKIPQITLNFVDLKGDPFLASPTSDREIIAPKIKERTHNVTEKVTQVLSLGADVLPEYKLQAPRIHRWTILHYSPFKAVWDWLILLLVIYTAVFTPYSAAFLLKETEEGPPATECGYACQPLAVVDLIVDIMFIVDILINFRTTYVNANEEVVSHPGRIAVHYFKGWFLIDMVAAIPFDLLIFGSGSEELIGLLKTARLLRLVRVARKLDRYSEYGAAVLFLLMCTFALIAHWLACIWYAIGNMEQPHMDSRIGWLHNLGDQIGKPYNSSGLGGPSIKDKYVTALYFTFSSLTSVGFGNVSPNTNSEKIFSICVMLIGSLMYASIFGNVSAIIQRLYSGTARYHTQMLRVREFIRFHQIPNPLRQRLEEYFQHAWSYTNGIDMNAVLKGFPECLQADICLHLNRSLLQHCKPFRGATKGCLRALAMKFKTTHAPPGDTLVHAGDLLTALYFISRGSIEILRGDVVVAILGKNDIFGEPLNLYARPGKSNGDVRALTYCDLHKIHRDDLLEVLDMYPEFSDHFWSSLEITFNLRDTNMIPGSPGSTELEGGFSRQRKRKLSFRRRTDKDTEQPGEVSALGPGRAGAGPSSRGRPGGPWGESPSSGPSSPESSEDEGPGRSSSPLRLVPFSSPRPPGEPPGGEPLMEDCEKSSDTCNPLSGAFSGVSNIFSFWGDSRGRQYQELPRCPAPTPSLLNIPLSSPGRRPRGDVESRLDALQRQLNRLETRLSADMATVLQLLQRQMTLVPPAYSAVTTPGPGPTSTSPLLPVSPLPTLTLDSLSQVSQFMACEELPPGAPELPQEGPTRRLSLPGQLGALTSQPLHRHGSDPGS
Procedure: 10 mL extracellular solution was used to dilute the stock solution, making the final concentrations of test compound were 0.3 μM, 1 μM, 3 μM, 10 μM and 30 μM.
The solubility of compound was visually observed.
The cell line was derived from HEK-293 cells, and grown in a humidified environment at 37° C. under 5% CO2, using the media formulation below. The cell line should not be allowed to exceed 80% confluence within the culture vessel to prevent contact inhibition causing senescence and should thus be passaged every 3/4 days using a seeding density of 2*10^6 cells per T175 flask. Cell lines were be pre-washed with phosphate buffered saline before harvesting with Trypsin/EDTA and seeded into new flasks.
HEK 293 cells expressed with hERG were plated on cover slips overnight with the cell density less than 50% of confluence. Cells used for electrophysiological study were transferred to a small cell bath (1 mL) mounted on the stage of an inverted microscope (Diaphot, Nikon) and were perfused with external solution containing (in mM) 130 NaCl, 4 KCl, 1.8 CaCl2), 1 MgCl2, 10 glucose and 10 HEPES (pH 7.4 with NaOH), the perfusion rate was 4 mL/min. The internal pipette solution contained (in mM) 130 KCl, 1 MgCl2, 5 ethylene glycol-bis(baminoethyl ether)-N,N,N8,N8-tetraacetic acid, 5 MgATP and 10 HEPES (pH 7.2 with KOH). An HEKA EPC-10 patch-clamp amplifier and PATCHMASTER acquisition program were used to record membrane currents (HEKA Instruments IncD-67466 Lambrecht/Pfalz Germany). All experiments were performed at room temperature (22-23° C.).
The Model P-97 micropipette puller (Sutter Instrument Company, One Digital Drive, Novato, Calif. 94949) was used to pull glass patch pipettes (BF150-86-10) in all experiments.
The experiments were initiated with a 2 min vehicle control period after forming a whole cell configuration with less 5% run-down in 5 min and the tail currents in the report were at least greater than 500 pA. After a 2 min vehicle control period, the perfusion was switched to the reservoir containing the compound at the first concentration. The same procedure was repeated 3-5 times so that each cell was exposed to 4-6 escalating concentrations of compound. The time courses for block and unblock of hERG during compounds exposure and washout were continuously recorded.
The peak tail of hERG was generated by applying 2-sec depolarizing every 12 sec steps from a holding potential of −80 mV, the peak of tail currents were measured at a 5-sec repolarizing pulse at −50 mV.
hERG peak tail currents were directly measured from a 5 sec repolarization pulse at −50 mV. The fraction of control current was plotted as a function of logarithm of compound concentration. To determine the concentration of compound for halfmaximum effect, the concentration-response curve was fitted by Hill equation as shown follow.
where Y is the observed value, Bottom is the lowest observed value (0), Top is the highest observed value (1), and the Hillcoefficient gives the largest absolute value of the slope of the curve.
Data were analyzed by a combination of PATCHMASTER ((HEKA Instruments IncD-67466 Lambrecht/Pfalz Germany) and Origin (OriginLab Corporation, Northampton, Mass.) software programs.
Data were expressed as mean±SEM.

leukemia MV-4-11 cell = test: Cell proliferation assay (CellTiter-Glo), MV-4-11; format: cell-based; details: Homo sapiens, MV4-11, MV-4-11, 120 hrs, CTG, read-out: Compound on MV-4-11 cell IC50
Procedure: (§1) The effects of the compounds on the proliferation of leukemia MV-4-11 cell and lung cancer NCI-H358 cell were evaluated by in vitro cell test. The assay used in this study was the CELL TITER-GLO (CTG) luminescence assay, which can detect the number of living cells by quantitative determination of ATP. Because ATP is involved in a variety of enzymatic reactions in vivo and is an indicator of the metabolism of living cells, its content can directly reflects the number and state of cells. During the experiment, Celltiter-Glo™ reagent was added to the cell culture medium to measure the luminescence value. The luminescence value was proportional to the amount of ATP, which in turn was positively correlated with the number of living cells. Therefore, ATP content can be used to detect cell viability.
A bottle of MV-4-11 cells in logarithmic growth phase was taken, the cells were collected, centrifuged, resuspend, counted, and then inoculated into 96-well Microplate (Corning #3917), with 4000 cells inoculated in each well. The plates were placed in an incubator at 37° C. and 5% CO2 for 24 hrs culture, and the compounds of the invention were added for conducting.
(§2) An appropriate amount of the compound of the invention was taken for cell treatment, and the final concentration of the compound from high to low was 1000 nM, 333.3 nM, 111.1 nM, 37.04 nM, 12.35 nM, 4.115 nM, 1.372 nm, 0.4572 nM, 0.1524 nM, 0 nM, respectively. The orifice plate was cultured in an incubator at 37° C. and 5% CO2. Only adding medium without adding cell hole was set as blank group. Compound concentration of 0 nM group was zero control group.
After cultured for 120 hrs, MV-4-11 cells were added with 50 μL CellTiter-Glo® Luminescent cell viability assay solution in each well, gently shaken for 2 mins, and incubated at room temperature for 10 mins. The detection values of each well were read on the multi-functional microplate reader.
(§3) The inhibition rate is calculated according to the luminous value reading,
(§4) Inhibition rate %=(1−(administration group value−blank group value)/(control group value−blank group value)*100
(§5) The log (inhibitor) vs. response variable slope of GraphPad Prism was used to fit the dose-response curve and calculate the IC50 of compounds inhibiting cell proliferation.

[1] = test system: lung cancer NCI-H358 cell; test: Cell proliferation assay (CellTiter-Glo), NCI-H358; format: cell-based; details: Homo sapiens, NCI-H358, 96 hrs, CTG, read-out: Compound on NCI-H358 cell IC50
Procedure: as §1
A bottle of NCI-H358 cells in logarithmic growth phase was taken, the cells were digested and resuspend, counted, and then the cell density was adjusted. After that, the cells were inoculated into a 96-well Ultra-Low Attachment Microplate (Corning #3474), 2000 cells were inoculated in each well, and the well plate was placed in an incubator at 37° C. and 5% CO2, and the compounds of the invention were added for conducting.
as §2
NCI-H358 cells were cultured for 96 hrs, then 50 μL CellTiter-Glo® Luminescent cell viability assay solution was added to each well, and the cells were gently shaken for 2 mins, and incubated at room temperature for 10 mins. The cell reaction system was transferred to 96-well Microplate (Corning #3917). The detection values of each well were read on the multi-functional microplate reader.
as §3, §4, §5

Row | IC50 (SHP2; class symbols) | IC50 (SHP2; numeric values) | IC50 (leukemia MV-4-11 cell; class symbols) | IC50 ([1]; class symbols) | IC50 (leukemia MV-4-11 cell; numeric values) | IC50 ([1]; numeric values) | Structure (SMILES) | IC50 (hERG channel)
1 | ≤ 20 nM |  |  |  |  |  | N[C@@H]1c2ccccc2CC12CCN(c1nc3[nH]nc(C4(c5ccccc5)CCC4)c3c(=O)[nH]1)CC2 [Example 90] | 4.95 µM
2 |  | 1.9 nM |  |  |  |  | N[C@@H]1c2ccccc2CC12CCN(c1nc3[nH]nc(C4(c5cccc(O)c5)CC4)c3c(=O)[nH]1)CC2 [Example 42, (S)-6-(1-amino-1,3-dihydrospiro[indene-2,4′-piperidin]-1′-yl)-3-(1-(3-hydroxyphenyl)cyclopropyl)-1,5-dihydro-4H-pyrazolo[3,4-d]pyrimidin-4-one] | > 30 µM
3 |  |  |  |  |  |  | N[C@@H]1c2ccccc2CC12CCN(c1nc3[nH]nc(C4(n5cccn5)CC4)c3c(=O)[nH]1)CC2 [Example 255, (S)-3-(1-(1H-pyrazol-1-yl)cyclopropyl)-6-(1-amino-1,3-dihydrospiro[indene-2,4′-piperidin]-1′-yl)-1,5-dihydro-4H-pyrazolo[3,4-d]pyrimidin-4-one] | > 30 µM
4 | ≤ 20 nM |  | ≤ 20 nM | ≤ 20 nM |  |  | N[C@@H]1c2ccccc2CC12CCN(c1nc3[nH]nc(C4(c5cccc(Cl)c5)CC4)c3c(=O)[nH]1)CC2 [Example 4, (S)-6-(1-amino-1,3-dihydrospiro[indene-2,4′-piperidin]-1′-yl)-3-(1-(3-chlorophenyl)cyclopropyl)-1,5-dihydro-4H-pyrazolo[3,4-d]pyrimidin-4-one] | 
5 |  | 1.6 nM |  |  | 2.8 nM | 2 nM | N[C@@H]1c2ccccc2CC12CCN(c1nc3[nH]nc(C4=CCCc5nc(Cl)ccc54)c3c(=O)[nH]1)CC2 [Example 139, (S)-6-(1-amino-1,3-dihydrospiro[indene-2,4′-piperidin]-1′-yl)-3-(2-chloro-7,8-dihydroquinolin-5-yl)-1,5-dihydro-4H-pyrazolo[3,4-d]pyrimidin-4-one] | 
6 | ≤ 20 nM |  |  |  | 1.4 nM | 1.2 nM | N[C@@H]1c2ccccc2CC12CCN(c1nc3[nH]nc(C4=CCOc5cc(F)ccc54)c3c(=O)[nH]1)CC2 [Example 115, (S)-6-(1-amino-1,3-dihydrospiro[indene-2,4′-piperidin]-1′-yl)-3-(7-fluoro-2H-chromen-4-yl)-1,5-dihydro-4H-pyrazolo[3,4-d]pyrimidin-4-one] | 
7 |  | 0.48 nM |  |  | 1.7 nM | 1.6 nM | N[C@@H]1c2ccccc2CC12CCN(c1nc3[nH]nc(C4=CCOc5c(F)cccc54)c3c(=O)[nH]1)CC2 [Example 124] | 
8 | ≤ 20 nM |  | 20 to 60 nM | 20 to 60 nM |  |  | COc1ccccc1C1(c2n[nH]c3nc(N4CCC5(CC4)Cc4ccccc4[C@H]5N)[nH]c(=O)c23)CC1 [Example 17, (S)-6-(1-amino-1,3-dihydrospiro[indene-2,4′-piperidin]-1′-yl)-3-(1-(2-methoxyphenyl)cyclopropyl)-1,5-dihydro-4H-pyrazolo[3,4-d]pyrimidin-4-one] | 
9 |  | 0.9 nM | ≤ 20 nM | ≤ 20 nM |  |  | Cc1cccc(C2(c3n[nH]c4nc(N5CCC6(CC5)Cc5ccccc5[C@H]6N)[nH]c(=O)c34)CC2)c1 [Example 10, (S)-6-(1-amino-1,3-dihydrospiro[indene-2,4′-piperidin]-1′-yl)-3-(1-(m-tolyl)cyclopropyl)-1,5-dihydro-4H-pyrazolo[3,4-d]pyrimidin-4-one] | 
10 |  | 1.6 nM |  |  | 1.9 nM | 1.1 nM | N[C@@H]1c2ccccc2CC12CCN(c1nc3[nH]nc(C4=CCCCc5ccccc54)c3c(=O)[nH]1)CC2 [Example 125] | 
11 |  | 1.1 nM |  |  | 2.1 nM | 1.1 nM | N#Cc1ccc2c(c1)CCC=C2c1n[nH]c2nc(N3CCC4(CC3)Cc3ccccc3[C@H]4N)[nH]c(=O)c12 [Example 122, (S)-5-(6-(1-amino-1,3-dihydrospiro[indene-2,4′-piperidin]-1′-yl)-4-oxo-4,5-dihydro-1H-pyrazolo[3,4-d]pyrimidin-3-yl)-7,8-dihydronaphthalene-2-carbonitrile] | 
12 | ≤ 20 nM |  | ≤ 20 nM | ≤ 20 nM |  |  | COc1cccc(C2(c3n[nH]c4nc(N5CCC6(CC5)Cc5ccccc5[C@H]6N)[nH]c(=O)c34)CC2)c1 [Example 18, (S)-6-(1-amino-1,3-dihydrospiro[indene-2,4′-piperidin]-1′-yl)-3-(1-(3-methoxyphenyl)cyclopropyl)-1,5-dihydro-4H-pyrazolo[3,4-d]pyrimidin-4-one] | 
